ChEMBL document CHEMBL1201862, “PubChem BioAssay data set” (2004)
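Method: 48-hour compound exposure of cells in 96-well plates, five concentrations, linear interpolation of endpoints. At the GI50, growth is halved.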 The source made the active and inactive calls. Rule as the data show it: active = GI50 up to about 1.1 µM and inactive = higher.

How the values were obtained:
Experiment in all cases: inhibition of tumour cell growth, NCI panel, 48 h
HT-29 = tested on: HT-29
MOLT-4 = tested on: MOLT-4
U-251 = tested on: U-251
Hs-578T = tested on: Hs-578T
SK-MEL-5 = tested on: SK-MEL-5
SF-268 = tested on: SF-268
SNB-19 = tested on: SNB-19
KM12 = tested on: KM12
SW-620 = tested on: SW-620
A549 = tested on: A549
K562 = tested on: K562
IGROV-1 = tested on: IGROV-1
LOX IMVI = tested on: LOX IMVI
NCI-H460 = tested on: NCI-H460
SR = tested on: SR
TK-10 = tested on: TK-10
HCC 2998 = tested on: HCC 2998
COLO 205 = tested on: COLO 205
T47D = tested on: T47D
PC-3 = tested on: PC-3
OVCAR-4 = tested on: OVCAR-4
HCT-15 = tested on: HCT-15
CAKI-1 = tested on: CAKI-1
OVCAR-3 = tested on: OVCAR-3
CCRF-CEM = tested on: CCRF-CEM
A498 = tested on: A498
NCI-H522 = tested on: NCI-H522
RPMI-8226 = tested on: RPMI-8226
MDA-MB-435 = tested on: MDA-MB-435
UACC-257 = tested on: UACC-257
SK-OV-3 = tested on: SK-OV-3
UO-31 = tested on: UO-31
ACHN = tested on: ACHN
SN12C = tested on: SN12C
MDA-MB-231 = tested on: MDA-MB-231
MCF7 = tested on: MCF7
Malme-3M = tested on: Malme-3M
NCI-H23 = tested on: NCI-H23
OVCAR-5 = tested on: OVCAR-5
OVCAR-8 = tested on: OVCAR-8
EKVX = tested on: EKVX
RXF 393 = tested on: RXF 393
SF-539 = tested on: SF-539
786-0 = tested on: 786-0
DU-145 = tested on: DU-145
NCI/ADR-RES = tested on: NCI/ADR-RES
MDA-N = tested on: MDA-N
HOP-62 = tested on: HOP-62
NCI-H226 = tested on: NCI-H226
SNB-75 = tested on: SNB-75
SK-MEL-28 = tested on: SK-MEL-28
HCT-116 = tested on: HCT-116
HL-60 = tested on: HL-60
SF-295 = tested on: SF-295

With CC(=O)O[C@H]1C(=O)[C@@]2(C)C(C(OC(=O)c3ccccc3)[C@]3(O)CC(OC(=O)[C@H](OC(=O)CCC(=O)O)C(NC(=O)c4ccccc4)c4ccccc4)C(C)=C1C3(C)C)C1(OC(C)=O)COC1C[C@@H]2O (stereo partly specified) the GI50 (HT-29) was < 0.01 µM (active), the GI50 (MOLT-4) was < 0.0156 µM (active) and the GI50 (U-251) was < 0.01 µM (active). For the same molecule, the GI50 (Hs-578T) was < 0.01 µM (active), the GI50 (SK-MEL-5) was < 0.01 µM (active) and the GI50 (SF-268) was < 0.0166 µM (active). The GI50 (SNB-19) was 0.0306 µM (active), the GI50 (KM12) was < 0.01 µM (active) and the GI50 (SW-620) was < 0.01 µM (active). For the same molecule, the GI50 (A549) was < 0.0199 µM (active), the GI50 (K562) was < 0.01 µM (active) and the GI50 (IGROV-1) was 0.0103 µM (active). The GI50 (LOX IMVI) was < 0.0122 µM (active), the GI50 (NCI-H460) was < 0.01 µM (active) and the GI50 (SR) was < 0.01 µM (active). For the same molecule, the GI50 (TK-10) was 0.265 µM (active), the GI50 (HCC 2998) was 0.0191 µM (active) and the GI50 (COLO 205) was < 0.01 µM (active). The GI50 (T47D) was < 0.0203 µM (active), the GI50 (PC-3) was < 0.01 µM (active) and the GI50 (OVCAR-4) was 17.1 µM (inactive). For the same molecule, the GI50 (HCT-15) was 1.53 µM, the GI50 (CAKI-1) was 3.75 µM (inactive) and the GI50 (OVCAR-3) was < 0.01 µM (active).
For COc1cc(O)c2c(=O)c(OC)c(-c3ccc(OC)c(OC)c3)oc2c1 [RETUSIN], the GI50 (CCRF-CEM) was > 100 µM (inactive), the GI50 (A498) was 16.1 µM (inactive) and the GI50 (U-251) was 15.1 µM (inactive). For the same molecule, the GI50 (NCI-H522) was 2.79 µM (inactive), the GI50 (SW-620) was > 100 µM (inactive) and the GI50 (NCI-H460) was 20 µM (inactive). For the same molecule, the GI50 (RPMI-8226) was 87.7 µM (inactive), the GI50 (TK-10) was > 100 µM (inactive) and the GI50 (MDA-MB-435) was > 100 µM (inactive). For the same molecule, the GI50 (COLO 205) was > 100 µM (inactive), the GI50 (UACC-257) was > 100 µM (inactive) and the GI50 (SK-OV-3) was 5.02 µM (inactive). The GI50 (HCT-15) was > 100 µM, the GI50 (CAKI-1) was 6.17 µM (inactive) and the GI50 (UO-31) was > 100 µM (inactive).
For O=c1nc2ccc3sc4ccccc4c(=O)c3n2c(=O)[nH]1, the GI50 (ACHN) was > 100 µM (inactive), the GI50 (CCRF-CEM) was > 100 µM (inactive) and the GI50 (HT-29) was > 100 µM (inactive). For the same molecule, the GI50 (SN12C) was > 100 µM (inactive), the GI50 (MOLT-4) was > 100 µM (inactive) and the GI50 (MDA-MB-231) was > 100 µM (inactive). The GI50 (MCF7) was > 100 µM (inactive), the GI50 (A498) was > 100 µM (inactive) and the GI50 (U-251) was > 100 µM (inactive). The GI50 (Malme-3M) was > 100 µM (inactive), the GI50 (NCI-H23) was > 100 µM (inactive) and the GI50 (OVCAR-5) was > 100 µM (inactive). For the same molecule, the GI50 (OVCAR-8) was > 100 µM (inactive), the GI50 (Hs-578T) was 19.4 µM (inactive) and the GI50 (SK-MEL-5) was > 100 µM (inactive). The GI50 (EKVX) was 11.7 µM (inactive), the GI50 (SF-268) was 98.2 µM (inactive) and the GI50 (RXF 393) was > 100 µM (inactive). For the same molecule, the GI50 (SNB-19) was > 100 µM (inactive), the GI50 (NCI-H522) was 73.8 µM (inactive) and the GI50 (KM12) was > 100 µM (inactive). For the same molecule, the GI50 (SW-620) was > 100 µM (inactive), the GI50 (SF-539) was > 100 µM (inactive) and the GI50 (A549) was > 100 µM (inactive). For the same molecule, the GI50 (K562) was > 100 µM (inactive), the GI50 (IGROV-1) was > 100 µM (inactive) and the GI50 (LOX IMVI) was > 100 µM (inactive). For the same molecule, the GI50 (786-0) was > 100 µM (inactive), the GI50 (NCI-H460) was > 100 µM (inactive) and the GI50 (RPMI-8226) was > 100 µM (inactive). For the same molecule, the GI50 (DU-145) was > 100 µM (inactive), the GI50 (NCI/ADR-RES) was > 100 µM (inactive) and the GI50 (SR) was > 100 µM (inactive). The GI50 (TK-10) was 66.7 µM (inactive), the GI50 (MDA-N) was > 100 µM (inactive) and the GI50 (MDA-MB-435) was > 100 µM (inactive). For the same molecule, the GI50 (HCC 2998) was > 100 µM (inactive), the GI50 (HOP-62) was > 100 µM (inactive) and the GI50 (COLO 205) was > 100 µM (inactive). For the same molecule, the GI50 (UACC-257) was > 100 µM (inactive), the GI50 (NCI-H226) was > 100 µM (inactive) and the GI50 (PC-3) was > 100 µM (inactive). For the same molecule, the GI50 (SNB-75) was > 100 µM (inactive), the GI50 (OVCAR-4) was > 100 µM (inactive) and the GI50 (HCT-15) was > 100 µM. For the same molecule, the GI50 (CAKI-1) was > 100 µM (inactive), the GI50 (SK-MEL-28) was > 100 µM (inactive) and the GI50 (HCT-116) was > 100 µM (inactive). For the same molecule, the GI50 (HL-60) was 83.4 µM (inactive), the GI50 (UO-31) was > 100 µM (inactive) and the GI50 (SF-295) was > 100 µM (inactive). The GI50 (OVCAR-3) was > 100 µM (inactive).
